This assay has as its target T1, human RXFP1 (Homo sapiens, UniProt Q9HBX9).
T1 construct: expressed in transfected cells
T1 sequence (Q9HBX9 1-757): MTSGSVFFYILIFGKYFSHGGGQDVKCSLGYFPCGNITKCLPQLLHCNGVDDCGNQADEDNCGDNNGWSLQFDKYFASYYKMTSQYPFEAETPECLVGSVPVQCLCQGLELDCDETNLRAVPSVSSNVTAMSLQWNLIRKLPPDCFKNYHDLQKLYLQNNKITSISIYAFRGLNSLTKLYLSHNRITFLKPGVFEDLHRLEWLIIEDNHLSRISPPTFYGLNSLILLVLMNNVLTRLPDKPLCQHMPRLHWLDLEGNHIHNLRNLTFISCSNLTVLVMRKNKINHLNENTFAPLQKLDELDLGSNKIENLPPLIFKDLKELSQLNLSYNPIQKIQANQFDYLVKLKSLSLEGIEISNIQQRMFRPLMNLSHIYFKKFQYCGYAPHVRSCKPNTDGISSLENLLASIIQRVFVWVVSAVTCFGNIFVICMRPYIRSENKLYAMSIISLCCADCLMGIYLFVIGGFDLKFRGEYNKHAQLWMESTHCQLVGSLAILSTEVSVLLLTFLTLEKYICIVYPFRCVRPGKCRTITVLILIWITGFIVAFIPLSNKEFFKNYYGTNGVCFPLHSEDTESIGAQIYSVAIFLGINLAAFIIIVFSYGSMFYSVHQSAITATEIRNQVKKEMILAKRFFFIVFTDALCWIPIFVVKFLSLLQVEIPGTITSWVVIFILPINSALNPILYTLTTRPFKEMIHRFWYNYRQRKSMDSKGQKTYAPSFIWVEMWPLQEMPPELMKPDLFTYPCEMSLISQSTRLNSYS
Briefly: human RXFP1 (hRXFP1) HEK293 cAMP assay (HTRF). It is filed as cell-based. The following applies: HEK293 cells stably expressing human RXFP1, 30 min at room temperature. In a few lines:
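Intracellular cAMP was quantified by HTRF after a 30 min room-temperature exposure of hRXFP1-HEK293 cells (1500/well) to compound at 0.010 nM–50 µM final, 2% DMSO. Buffer was HBSS with 20 mM HEPES, 0.05% BSA and 0.5 mM IBMX; values came from a 4-parameter logistic fit.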
Background: cAMP levels reflect the balance of adenylyl cyclase and phosphodiesterase activity.

What is called EC50 is the concentration giving half of the maximal effect. On to `COc1nn(-c2cccc(C(=O)O)c2)cc1C(=O)N[C@@H]1C2CCC(/C2=C/c2ccccc2)[C@@H]1C(=O)Nc1ccc(F)c(C(F)(F)F)c1` (stereo partly drawn) [Example 54, 3-(4-{[(2R,3S,7Z)-3-{[4-fluoro-3-(trifluoromethyl)phenyl]carbamoyl}-7-(phenylmethylidene)bicyclo [2.2.1]heptan-2-yl]carbamoyl}-3-methoxy-1H-pyrazol-1-yl)benzoic acid], for which the concentration for a half-maximal effect (EC50) stood at 1200 nM.

With `N#Cc1ccc2c(c1)CCc1c(C(=O)N[C@H]3[C@@H](C(=O)Nc4ccc(F)c(C(F)(F)F)c4)[C@H]4CC[C@@H]3/C4=C\C(F)(F)F)nn(CC(F)F)c1-2` [Example 55, 7-cyano-1-(2,2-difluoroethyl)-N-((1R,2R,3S,4R,Z)-3-((4-fluoro-3-(trifluoromethyl)phenyl)carbamoyl)-7-(2,2,2-trifluoroethylidene)bicyclo[2.2.1]heptan-2-yl)-4,5-dihydro-1H-benzo[g]indazole-3-carboxamide], the EC50 stood at 360 nM.

Turning to `Cc1nc(O)c(C(=O)N[C@H]2[C@@H](C(=O)Nc3ccc(F)c(C(F)(F)F)c3)[C@H]3CC[C@@H]2/C3=C\C(F)(F)F)cc1-c1cccc(C(=O)O)c1` [Example 56, 3-(5-(((1R,2R,3S,4R,Z)-3-((4-fluoro-3-(trifluoromethyl)phenyl)carbamoyl)-7-(2,2,2-trifluoroethylidene)bicyclo[2.2.1]heptan-2-yl)carbamoyl)-6-hydroxy-2-methylpyridin-3-yl)benzoic acid], a half-maximal effect (EC50) was put at 2800 nM.

For the compound `CC(C)(O)COc1ccc2c(C(=O)N[C@@H]3C4CCC(/C4=C/C(F)(F)F)[C@@H]3C(=O)Nc3ccc(F)c(C(F)(F)F)c3)nn(C(F)F)c2c1` (stereo partly drawn) [Example 57, 1-(difluoromethyl)-N-[(2R,3S,7Z)-3-{[4-fluoro-3-(trifluoromethyl)phenyl]carbamoyl}-7-(2,2,2-trifluoro-ethylidene)bicyclo[2.2.1]heptan-2-yl]-6-(2-hydroxy-2-methylpropoxy)-1H-indazole-3-carboxamide], a half-maximal effect (EC50) was put at 3900 nM.

`O=C(N[C@@H]1C2CCC(/C2=C/C(F)(F)F)[C@@H]1C(=O)Nc1ccc(F)c(C(F)(F)F)c1)c1cc(Br)cc2c1OCC2` (stereo partly drawn) [Example 58, 5-bromo-N-[(2R,3S,7Z)-3-{[4-fluoro-3-(trifluoromethyl)phenyl]carbamoyl}-7-(2,2,2-trifluoro-ethylidene)bicyclo[2. 2.1]heptan-2-yl]-2,3-dihydro-1-benzofuran-7-carboxamide] had an EC50 of 3000 nM.

With `COc1ncc(C2=NOC3CC(C(N)=O)CC23)cc1C(=O)N[C@H]1[C@@H](C(=O)Nc2ccc(F)c(C(F)(F)F)c2)[C@H]2CC[C@@H]1/C2=C\C1CC1` (stereo partly drawn) [Example 66, 5-{5-carbamoyl-3aH,4H,5H,6H, 6aH-cyclopenta[d][1, 2]oxazol-3-yl}-N-[(1R,2R,3S, 4R,7Z)-7-(cyclopropylmethylidene)-3-{[4-fluoro-3-(trifluoromethyl)phenyl]carbamoyl}bicyclo[2.2.1]heptan-2-yl]-2-methoxypyridine-3-carboxamide], the half-maximal effective concentration (EC50) amounted to 1.3 nM.

For the compound `COc1ncc(COC2(CO)CC2)cc1C(=O)N[C@H]1[C@@H](C(=O)Nc2ccc(F)c(C(F)(F)F)c2)[C@H]2CC[C@@H]1/C2=C\C1CC1` [Example 73, N-[(1R,2R,3S, 4R,7Z)-7-(cyclopropyl-methylidene)-3-{[4-fluoro-3-(trifluoromethyl)phenyl]carbamoyl}bicyclo[2.2.1]heptan-2-yl]-5-{[1-(hydroxymethyl)cyclopropoxy]methyl}-2-methoxypyridine-3-carboxamide], a half-maximal response (EC50) required 24 nM.

Take `COc1ncc(C(=O)N2CC(O)C2)cc1C(=O)N[C@H]1[C@@H](C(=O)Nc2ccc(F)c(C(F)(F)F)c2)[C@H]2CC[C@@H]1/C2=C\C1CC1` [Example 75, N-[(1R,2R,3S, 4R,7Z)-7-(cyclopropyl-methylidene)-3-{[4-fluoro-3-(trifluoromethyl)phenyl]carbamoyl}bicyclo[2.2.1]heptan-2-yl]-5-(3-hydroxyazetidine-1-carbonyl)-2-methoxypyridine-3-carboxamide]: it took 8.1 nM to reach a half-maximal effect (EC50).

Consider `COc1ncc(C(=O)N2CC3(COC3)C2)cc1C(=O)N[C@H]1[C@@H](C(=O)Nc2ccc(F)c(C(F)(F)F)c2)[C@H]2CC[C@@H]1/C2=C\C1CC1` [Example 76, N-[(1R,2R, 3S,4R,7Z)-7-(cyclopropyl-methylidene)-3-{[4-fluoro-3-(trifluoromethyl)phenyl]carbamoyl}bicyclo[2.2.1]heptan-2-yl]-2-methoxy-5-{2-oxa-6-azaspiro[3.3]heptane-6-carbonyl}pyridine-3-carboxamide], for which the EC50 amounted to 65 nM.

Consider `COc1cn(CCS(C)(=O)=O)nc1C(=O)N[C@H]1[C@@H](C(=O)Nc2ccc(F)c(C(F)(F)F)c2)[C@H]2CC[C@@H]1/C2=C\C1CC1` [Example 77, N-[(1R,2R,3S,4R,7Z)-7-(cyclopropylmethylidene)-3-{[4-fluoro-3-(trifluoromethyl)phenyl]carbamoyl}bicyclo[2.2.1]heptan-2-yl]-1-(2-methanesulfonylethyl)-4-methoxy-1H-pyrazole-3-carboxamide], for which the EC50 worked out at 71 nM.

Turning to `COc1ncc(C(=O)OC(C)(C)C)cc1C(=O)N[C@H]1[C@@H](C(=O)Nc2ccc(F)c(C(F)(F)F)c2)[C@H]2CC[C@@H]1/C2=C\C1CC1` [Example 78, tert-butyl 5-(((1R,2R,3S,4R,Z)-7-(cyclopropylmethylene)-3-((4-fluoro-3-(trifluoromethyl)phenyl)carbamoyl)bicyclo[2.2.1]heptan-2-yl)carbamoyl)-6-methoxynicotinate], the EC50 stood at 140 nM.

The compound `COCCn1cc(OC)c(C(=O)N[C@@H]2C3CCC(/C3=C/C3CC3)[C@@H]2C(=O)Nc2ccc(F)c(C(F)(F)F)c2)n1` (stereo partly drawn) [Example 79] had an EC50 of 230 nM.

`COc1cn(CCCO)nc1C(=O)N[C@H]1[C@@H](C(=O)Nc2ccc(F)c(C(F)(F)F)c2)[C@H]2CC[C@@H]1/C2=C\C1CC1` [Example 80, N-[(1R,2R,3S, 4R,7Z)-7-(cyclopropyl-methylidene)-3-{[4-fluoro-3-(trifluoromethyl)phenyl]carbamoyl}bicyclo[2.2.1]heptan-2-yl]-1-(3-hydroxypropyl)-4-methoxy-1H-pyrazole-3-carboxamide]: the response was half-maximal at 260 nM (EC50).

The compound `O=C(O)c1ccc(F)c(C23COC(C(=O)N[C@H]4[C@@H](C(=O)Nc5ccc(F)c(C(F)(F)F)c5)[C@H]5CC[C@@H]4/C5=C\C(F)(F)F)(C2)C3)c1` [Example 81, 4-fluoro-3-(1-(((1R,2R,3S,4R,Z)-3-((4-fluoro-3-(trifluoromethyl)phenyl)carbamoyl)-7-(2,2,2-trifluoroethylidene)bicyclo[2.2.1]heptan-2-yl)carbamoyl)-2-oxabicyclo[2.1.1]hexan-4-yl)benzoic acid] yielded an EC50 of 2300 nM.

`COc1cc2c(cc1C(=O)N[C@H]1[C@@H](C(=O)Nc3ccc(F)c(C(F)(F)F)c3)[C@H]3CC[C@@H]1/C3=C\C1CC1)CN(C(=O)OC(C)(C)C)CC2` [Example 82, tert-butyl 7-(((1R,2R,3S,4R,Z)-7-(cyclopropylmethylene)-3-((4-fluoro-3-(trifluoromethyl)phenyl)carbamoyl)bicyclo[2.2.1]heptan-2-yl)carbamoyl)-6-methoxy-3,4-dihydroisoquinoline-2(1H)-carboxylate] had a half-maximal effective concentration (EC50) of 660 nM.

`COc1cc2c(cc1C(=O)N[C@H]1[C@@H](C(=O)Nc3ccc(F)c(C(F)(F)F)c3)[C@H]3CC[C@@H]1/C3=C\C1CC1)CNCC2` [Example 83, N-((1R,2R,3S,4R,Z)-7-(cyclopropylmethylene)-3-((4-fluoro-3-(trifluoromethyl)phenyl)carbamoyl)bicyclo[2.2.1]heptan-2-yl)-6-methoxy-1,2,3,4-tetrahydroisoquinoline-7-carboxamide] showed an EC50 of 2400 nM.

Regarding `COc1cc2c(cc1C(=O)N[C@H]1[C@@H](C(=O)Nc3ccc(F)c(C(F)(F)F)c3)[C@H]3CC[C@@H]1/C3=C\C1CC1)CN(CCS(C)(=O)=O)CC2` [Example 84, N-((1R,2R,3S,4R,Z)-7-(cyclopropylmethylene)-3-((4-fluoro-3-(trifluoromethyl)phenyl)carbamoyl)bicyclo[2.2.1]heptan-2-yl)-6-methoxy-2-(2-(methylsulfonyl)ethyl)-1,2,3,4-tetrahydroisoquinoline-7-carboxamide], the EC50 turned out to be 330 nM.

`COc1cc2c(cc1C(=O)N[C@H]1[C@@H](C(=O)Nc3ccc(F)c(C(F)(F)F)c3)[C@H]3CC[C@@H]1/C3=C\C1CC1)CN(CC(C)(C)O)CC2` [Example 85, N-((1R,2R,3S,4R,Z)-7-(cyclopropylmethylene)-3-((4-fluoro-3-(trifluoromethyl)phenyl)carbamoyl)bicyclo[2.2.1]heptan-2-yl)-2-(2-hydroxy-2-methylpropyl)-6-methoxy-1,2,3,4-tetrahydroisoquinoline-7-carboxamide]: the EC50 was found to be 200 nM.

(Values after patent US20250011288A1 (BRISTOL-MYERS SQUIBB COMPANY, priority 2021, published 2025).)
